Source: US20230399312A1, “SUBSTITUTED PYRIMIDINES AND METHODS OF USE” (THERAVANCE BIOPHARMA R&D IP, LLC, priority 2020, published 2023)

Columns and labels:
[1] = molecular target: T1, recombinant human ALK5 (TGF-βR1) protein (Homo sapiens, UniProt P36897); experiment: Biochemical ALK5 (TGF-βR1) assay to measure pKi (LANCE Ultra ULight kinase assay); settings: apparent pKi, converted from pIC50 by Cheng-Prusoff
T1 construct: purchased Life Technologies PR9075A
T1 sequence (P36897 34-503): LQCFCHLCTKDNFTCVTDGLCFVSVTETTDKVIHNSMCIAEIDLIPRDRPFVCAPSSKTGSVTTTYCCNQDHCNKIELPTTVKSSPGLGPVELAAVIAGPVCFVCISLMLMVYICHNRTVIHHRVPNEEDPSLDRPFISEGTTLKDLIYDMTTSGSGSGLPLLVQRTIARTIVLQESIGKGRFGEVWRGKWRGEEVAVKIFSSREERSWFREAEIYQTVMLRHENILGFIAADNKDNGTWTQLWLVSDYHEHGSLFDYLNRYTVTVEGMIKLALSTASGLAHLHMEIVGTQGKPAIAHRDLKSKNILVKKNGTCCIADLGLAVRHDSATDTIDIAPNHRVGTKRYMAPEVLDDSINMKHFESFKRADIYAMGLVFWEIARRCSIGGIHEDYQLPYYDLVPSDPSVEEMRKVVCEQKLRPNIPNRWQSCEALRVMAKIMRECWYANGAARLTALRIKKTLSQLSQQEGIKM
How it was run: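 Enzyme preincubated with compound for 60 min at room temperature, then reacted with ATP (125 μM as 5× stock) for 60 min at 37 °C. Stopped with EDTA plus Eu-anti-phospho-Topoisomerase 2-alpha (Thr1342) antibody and read by TR-FRET at 665 nm. pIC50 from a 4-parameter fit, converted to pKi by Cheng-Prusoff.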

[2] = tested on: TGF-β-stimulated SMAD3 phosphorylation in BEAS-2B cells; experiment: Cellular ALK5 potency assay, inhibition of TGF-β stimulated pSMAD3 formation in BEAS-2B cells; format: cell-based; settings: Homo sapiens, pSMAD3, TGF-β 10 ng/mL, read-out: BEAS2B pIC50 (converted)
How it was run: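 Human lung epithelial BEAS-2B cells were preincubated 1 h at 37 °C with compound in HBSS/HEPES/1% BSA, then stimulated 30 min with 10 ng/mL TGF-β. pSMAD3 in lysates was quantified by AlphaLISA relative to untreated stimulated cells; reported as pIC50.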

Ki [1] [nM] | SMILES | IC50 [2] [nM]
0.0398 to 0.316 | COC(=O)[C@H]1CN(c2ccc(Nc3nccc(Nc4ccnc(-c5cccc(C)n5)n4)n3)cc2)CCN1 [Compound 172, methyl (2R)-4-[4-[[4-[[2-(6-methyl-2-pyridyl)pyrimidin-4-yl]amino]pyrimidin-2-yl]amino]phenyl]piperazine-2-carboxylate] | 25.1 to 158
0.0398 to 0.316 | Cc1cccc(-c2nccc(Nc3ccnc(Nc4ccc(N5CCCC(C(=O)OC6CNC6)C5)cc4)n3)n2)n1 (stereo not shown) [Compound 173, azetidin-3-yl 1-[4-[[4-[[2-(6-methyl-2-pyridyl)pyrimidin-4-yl]amino]pyrimidin-2-yl]amino]phenyl]piperidine-3-carboxylate] | 25.1 to 158
0.0398 to 0.316 | Cc1cccc(-c2nccc(Nc3ccnc(Nc4ccc(CN5CC(C(=O)O[C@H]6CCNC6)C5)cc4)n3)n2)n1 [Compound 174, [(3S)-pyrrolidin-3-yl] 1-[[4-[[4-[[2-(6-methyl-2-pyridyl)pyrimidin-4-yl]amino]pyrimidin-2-yl]amino]phenyl]methyl] azetidine-3-carboxylate] | 25.1 to 158
≤ 0.0316 | Cc1cccc(-c2nccc(Nc3ccnc(Nc4ccc5c(c4)CNCC5)n3)n2)n1 [Compound 175, N4-(2-(6-methylpyridin-2-yl)pyrimidin-4-yl)-N2-(1,2,3,4-tetrahydroisoquinolin-7-yl)pyrimidine-2,4-diamine] | 25.1 to 158
0.398 to 3.16 | CNC1CCN(S(=O)(=O)c2cccc(Nc3nccc(Nc4ccnc(-c5cccc(C)n5)n4)n3)c2)CC1 [Compound 176, N2-[3-[[4-(methylamino)-1-piperidyl]sulfonyl]phenyl]-N4-[2-(6-methyl-2-pyridyl)pyrimidin-4-yl]pyrimidine-2,4-diamine] | 25.1 to 158
0.398 to 3.16 | Cc1cccc(-c2nccc(Nc3ccnc(Nc4cccc(C(=O)OCC5CNC5)c4)n3)n2)n1 [Compound 178, azetidin-3-ylmethyl 3-((4-((2-(6-methylpyridin-2-yl)pyrimidin-4-yl)amino)pyrimidin-2-yl)amino)benzoate] | 25.1 to 158
0.398 to 3.16 | Cc1ccc(O)cc1-c1nccc(Nc2ccnc(Nc3ccc(N4CCNCC4)cc3)n2)n1 [Compound 179, 4-methyl-3-[4-[[2-(4-piperazin-1-ylanilino)pyrimidin-4-yl]amino]pyrimidin-2-yl]phenol] | 25.1 to 158
0.0398 to 0.316 | Cc1cccc(-c2nccc(Nc3ccnc(Nc4ccc(NC(=O)C5(O)CNC5)cc4)n3)n2)n1 [Compound 180, 3-hydroxy-N-[4-[[4-[[2-(6-methyl-2-pyridyl)pyrimidin-4-yl]amino]pyrimidin-2-yl]amino]phenyl]azetidine-3-carboxamide] | 25.1 to 158
0.0398 to 0.316 | Cc1cccc(-c2nccc(Nc3ccnc(Nc4cnn(CC5CNC5)c4)n3)n2)n1 [Compound 181, N2-[1-(azetidin-3-ylmethyl)pyrazol-4-yl]-N4-[2-(6-methyl-2-pyridyl)pyrimidin-4-yl]pyrimidine-2,4-diamine] | 200 to 1260
0.0398 to 0.316 | Cc1cccc(-c2nccc(Nc3ccnc(Nc4ccc(CN5CCC[C@@H](C(=O)OCC6CN(C)C6)C5)cc4)n3)n2)n1 [Compound 182, (1-methylazetidin-3-yl)methyl (3R)-1-[[4-[[4-[[2-(6-methyl-2-pyridyl)pyrimidin-4-yl]amino]pyrimidin-2-yl]amino]phenyl]methyl] piperidine-3-carboxylate] | 25.1 to 158
0.0398 to 0.316 | Cc1cccc(-c2nccc(Nc3ccnc(Nc4ccc(CN5CCN[C@@H](CO)C5)cc4)n3)n2)n1 [Compound 183, [(2R)-4-[[4-[[4-[[2-(6-methyl-2-pyridyl)pyrimidin-4-yl]amino]pyrimidin-2-yl]amino]phenyl]methyl]piperazin-2-yl]methanol] | 25.1 to 158
0.0398 to 0.316 | Cc1cccc(-c2nccc(Nc3ccnc(Nc4cc(F)c(NC(=O)C5CCNCC5)c(Cl)c4)n3)n2)n1 [Compound 184, N-[2-chloro-6-fluoro-4-[[4-[[2-(6-methyl-2-pyridyl)pyrimidin-4-yl]amino]pyrimidin-2-yl]amino]phenyl]piperidine-4-carboxamide] | 25.1 to 158
0.0398 to 0.316 | Cc1cccc(-c2nccc(Nc3ccnc(Nc4ccc(N5CCC(C(=O)O[C@H]6CCNC6)CC5)cc4)n3)n2)n1 [Compound 185, [(3S)-pyrrolidin-3-yl] 1-[4-[[4-[[2-(6-methyl-2-pyridyl)pyrimidin-4-yl]amino]pyrimidin-2-yl]amino]phenyl]piperidine-4-carboxylate] | 25.1 to 158
0.0398 to 0.316 | Cc1cccc(-c2nccc(Nc3ccnc(Nc4ccc(N5CC(CN)C5)cc4)n3)n2)n1 [Compound 186, N2-[4-[3-(aminomethyl)azetidin-1-yl]phenyl]-N4-[2-(6-methyl-2-pyridyl)pyrimidin-4-yl]pyrimidine-2,4-diamine] | 25.1 to 158
0.0398 to 0.316 | Cc1cccc(-c2nccc(Nc3ccnc(Nc4ccc(CN)cc4)n3)n2)n1 [Compound 187, N2-[4-(aminomethyl)phenyl]-N4-[2-(6-methyl-2-pyridyl)pyrimidin-4-yl]pyrimidine-2,4-diamine] | 25.1 to 158
≤ 0.0316 | Cc1cccc(-c2nccc(Nc3ccnc(Nc4csc(C(=O)N5CCNCC5)c4)n3)n2)n1 [Compound 188, [4-[[4-[[2-(6-methyl-2-pyridyl)pyrimidin-4-yl]amino]pyrimidin-2-yl]amino]-2-thienyl]-piperazin-1-yl-methanone] | 25.1 to 158
≤ 0.0316 | Cc1cccc(-c2nccc(Nc3ccnc(Nc4ccc(N5CCN(C(C)C)CC5)cc4)n3)n2)n1 [Compound 189, N2-[4-(4-isopropylpiperazin-1-yl)phenyl]-N4-[2-(6-methyl-2-pyridyl)pyrimidin-4-yl]pyrimidine-2,4-diamine] | 25.1 to 158
0.0398 to 0.316 | CC(=O)N1CCN(c2cccc(Nc3nccc(Nc4ccnc(-c5cccc(C)n5)n4)n3)c2)CC1 [Compound 190, 1-[4-[3-[[4-[[2-(6-methyl-2-pyridyl)pyrimidin-4-yl]amino]pyrimidin-2-yl]amino]phenyl]piperazin-1-yl]ethanone] | 25.1 to 158
0.398 to 3.16 | Cc1cccc(-c2nccc(Nc3ccnc(Nc4cc(N)c5c(c4)OCCO5)n3)n2)n1 [Compound 191, N2-(5-amino-2,3-dihydro-1,4-benzodioxin-7-yl)-N4-[2-(6-methyl-2-pyridyl)pyrimidin-4-yl]pyrimidine-2,4-diamine] | 25.1 to 158
0.0398 to 0.316 | Cc1cccc(-c2nccc(Nc3ccnc(Nc4ccc(N5CCC(NCC(C)C)CC5)cc4)n3)n2)n1 [Compound 194, N2-[4-[4-(isobutylamino)-1-piperidyl]phenyl]-N4-[2-(6-methyl-2-pyridyl)pyrimidin-4-yl]pyrimidine-2,4-diamine] | 25.1 to 158
0.0398 to 0.316 | Cc1cccc(-c2nccc(Nc3ccnc(Nc4ccc(CN5CCC(C(=O)O[C@@H]6CCN(C)C6)C5)cc4)n3)n2)n1 (stereo partly drawn) [Compound 195, [(3R)-1-methylpyrrolidin-3-yl] 1-[[4-[[4-[[2-(6-methyl-2-pyridyl)pyrimidin-4-yl]amino]pyrimidin-2-yl]amino]phenyl]methyl] pyrrolidine-3-carboxylate] | 25.1 to 158
0.0398 to 0.316 | Cc1cccc(-c2nccc(Nc3ccnc(Nc4ccc(N5CCCNCC5)cc4)n3)n2)n1 [Compound 196, N2-[4-(1,4-diazepan-1-yl)phenyl]-N4-[2-(6-methyl-2-pyridyl)pyrimidin-4-yl]pyrimidine-2,4-diamine] | 25.1 to 158
0.0398 to 0.316 | Cc1cccc(-c2nccc(Nc3ccnc(Nc4ccc5c(c4)CN(C(C)C)CC5)n3)n2)n1 [Compound 198, N2-(2-isopropyl-3,4-dihydro-1H-isoquinolin-7-yl)-N4-[2-(6-methyl-2-pyridyl)pyrimidin-4-yl]pyrimidine-2,4-diamine] | 25.1 to 158

SMILES | Ki [1] [nM] | IC50 [2] [nM]
Cc1cccc(-c2nccc(Nc3ccnc(Nc4ccc(CN5CC6CCCC(C5)N6)cc4)n3)n2)n1 [Compound 177, N2-[4-(3,9-diazabicyclo[3.3.1]nonan-3-ylmethyl)phenyl]-N4-[2-(6-methyl-2-pyridyl)pyrimidin-4-yl]pyrimidine-2,4-diamine] | 0.0398 to 0.316 | 25.1 to 158
Cc1cccc(-c2nccc(Nc3ccnc(Nc4ccc(C5=CCNCC5)cc4)n3)n2)n1 [Compound 193, N4-[2-(6-methyl-2-pyridyl)pyrimidin-4-yl]-N2-[4-(1,2,3,6-tetrahydropyridin-4-yl)phenyl]pyrimidine-2,4-diamine] | 0.0398 to 0.316 | ≤ 20
Cc1cccc(-c2nccc(Nc3ccnc(Nc4ccc(CN5C6CCC5CNC6)cc4)n3)n2)n1 [Compound 197, N2-[4-(3,8-diazabicyclo[3.2.1]octan-8-ylmethyl)phenyl]-N4-[2-(6-methyl-2-pyridyl)pyrimidin-4-yl]pyrimidine-2,4-diamine] | 0.0398 to 0.316 | 25.1 to 158
